The results in this text go back to US11952388B2, “Crystal form of tri-cycle compound and application thereof” (FUJIAN AKEYLINK BIOTECHNOLOGY CO., LTD., priority 2018, dated 2024).

Like-named read-outs stand apart in the source and are kept apart here.

Data set [1] in a line: Pharmacokinetics of oral administration and intravenous injection in Beagle. In kind it is in vivo, beagle dogs. Here is the method: 3. Study on the Pharmacokinetics of Oral Administration and Intravenous Injection of the Compound Represented by Formula (I) in Beagle The compound represented by formula (I) was mixed with 5% DMSO/55% polyethylene glycol 400/40% aqueous solution, vortexed and sonicated to obtain an approximately clear solution of 1 mg/mL, which was then filtered by a microporous membrane for later use. Male beagle dogs weighed about 10 kg were selected and the candidate compound solution was administered intravenously at a dose of 1 mg/kg. The compound represented by formula (I) was mixed with 10% solutol aqueous solution, vortexed and sonicated to obtain an approximately clear solution of 2 mg/mL, which was then filtered through a microporous membrane for later use. Male beagle dogs weighed about 10 kg were selected and the candidate compound solution was orally administered at a dose of 10 mg/kg. Whole blood was collected at a certain period of time to prepare plasma, drug concentration was analyzed by LC-MS/MS method, and pharmacokinetic parameters was calculated by Phoenix WinNonlin software (Pharsight, USA). Note: T1/2 means half-life; Vdss means apparent volume of distribution; Cl means clearance rate; AUC0_last means area below the drug-time curve; Tmax means peak time; Cmax means peak concentration; F % means oral bioavailability; iv means intravenous injection; PO means oral administration; mpk means mg/kg.

A further data set deals with hepatitis B virus. Description: In vivo drug efficacy, AAV/HBV mouse model. Particulars: AAV/HBV mouse model, 15, 50, 150 mg/kg BID PO, 28 days. Here is the method:
FIG. 7: The level of Hepatitis B virus DNA in plasma; broken line 1 means blank control, 10% solutol aqueous solution was administered quaque die (QD), per os (PO); broken line 2 means that WX-325 was administrated at a dose of 15 mg/kg bis in die (BID) at an interval of 8 hours, per os (PO); the broken line 3 means that WX-325 was administrated at a dose of 50 mg/kg bis in die (BID) at an interval of 8 hours, per os (PO); broken line 5 means that WX-325 was administrated at a dose of 150 mg/kg bis in die (BID) at an interval of 8 hours, per os (PO); broken line 6 means that tenofovir (TDF) of the positive compound was administrated at a dose of 15 mg/kg bis in die (BID) at an interval of 8 hours, per os (PO); LLOQ means lower limit of detection; Note: WX-325 in FIG. 7 means the compound represented by formula (I) of the present invention. […]
Experimental operation: The day of the first administration was designated as day 0, the day before administration was designated as day −1, the day after administration was designated as day 1, and so on. […] The content of HBV DNA, HBeAg and HBsAg were detected using the serum. […] Both drugs were administered for 28 days, and blood samples were taken on day 3, 7, 10 and 28 after administration, and the level of HBV DNA in plasma was detected by qPCR. […]

Where [2] appears, read: male, beagle, dog, plasma, 1 mg/kg, Dogs, iv 1 mpk.
The mark [3] stands for this setting: male, beagle, dog, plasma, 10 mg/kg, Dogs, po 10 mpk.

For `Cc1cc2n(c1)S(=O)(=O)c1ccc(C(=O)NCC[C@H]3COCCO3)cc1NC2=O` [compound represented by formula (I)], the “pharmacokinetics (conclusion in words)” value in data set [1] (Beagle) is recorded as “good single or partial index of pharmacokinetics”. In data set [1] (setting [2]), this compound had a clearance of 0.936 L/h/kg and a half-life of 2.87 h. For the same compound, the AUC(0-t) in data set [1] (male, beagle, dog, plasma, 1 mg/kg, Dogs, iv 1 mpk, read-out: AUC0-last) was determined as 2.68 µM·h. In addition, the Vd in data set [1] (male, beagle, dog, plasma, 1 mg/kg, Dogs, iv 1 mpk, read-out: Vdss) was 2.95 L/kg. In data set [1] (setting [3]), the highest level (Cmax) was 5.85 µM, the Tmax amounted to 1.67 h and the bioavailability came out at 126%. Moreover, in data set [1] (male, beagle, dog, plasma, 10 mg/kg, Dogs, po 10 mpk, read-out: AUC0-24h), the AUC(0-t) was 33.2 µM·h. The “in vivo efficacy, HBV DNA in plasma and liver (conclusion in words)” value in the data set with hepatitis B virus is “good in vivo efficacy and a dose-dependent effect”.
